Measurements: patent US20230081720A1, “MCL-1 INHIBITOR ANTIBODY-DRUG CONJUGATES AND METHODS OF USE” (NOVARTIS AG, priority 2019, published 2023)
Where two headings read alike, the source gives them in different places.

Key:
[1] = system: EOL-1; assay type: cell-based
Description: (§1) Cell lines were cultured in media that is optimal for their growth at 5% CO2, 37° C. in a tissue culture incubator. Prior to seeding for the proliferation assay, the cells were split at least 2 days before the assay to ensure optimal growth density. […] Cell viability and cell density were determined using a cell counter (Vi-Cell XR Cell Viability Analyzer, Beckman Coulter). […] Cells were seeded at a density of 1,000 cells per well in 45 μL of standard growth media. Plates were incubated at 5% CO2, 37° C. overnight in a tissue culture incubator. […] Each drug concentration was tested in quadruplets. […] Plates were incubated at room temperature for 10 minutes to stabilize luminescent signals prior to reading using a luminescence reader (EnVision Multilabel Plate Reader, PerkinElmer). To evaluate the effect of the drug treatments, luminescent counts from wells containing untreated cells (100% viability) were used to normalize treated samples.

[2] = system: MONO-MAC-1; assay type: cell-based; settings: CD74 ADC with the named linker-payload, 5 days
Description: as §1

[3] = system: NOMO-1; assay type: cell-based
Description: as §1

[4] = molecular target: Mcl-1 protein (Homo sapiens, UniProt Q07820); test: Inhibition of Mcl-1 by fluorescence polarization (FP); assay type: binding; settings: fluorescein-labelled ligand 1 nM, Mcl-1 protein 5 nM
Chain of Mcl-1 protein (Q07820 whole entry): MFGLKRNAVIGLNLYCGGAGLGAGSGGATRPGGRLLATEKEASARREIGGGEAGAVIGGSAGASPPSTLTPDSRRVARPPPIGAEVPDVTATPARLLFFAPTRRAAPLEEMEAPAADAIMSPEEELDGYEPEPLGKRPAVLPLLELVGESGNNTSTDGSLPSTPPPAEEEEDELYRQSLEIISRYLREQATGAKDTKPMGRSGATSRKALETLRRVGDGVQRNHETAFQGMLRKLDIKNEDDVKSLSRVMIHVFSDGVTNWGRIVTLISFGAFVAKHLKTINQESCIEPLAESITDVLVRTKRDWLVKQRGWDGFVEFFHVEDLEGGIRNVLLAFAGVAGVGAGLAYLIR
Description: The relative binding potency of each compound was determined via Fluorescence Polarization (FP).
An 11-point serial dilution of each compound was prepared in DMSO and 2 PI transferred into flat bottomed, low binding, 384-well plate (final DMSO concentration 5%). 38 μl of buffer (10 mM 4-(2-hydroxyethyl)-1-piperazineethanesulfonic acid [HEPES], 150 mM NaCl, 0.05% Tween 20, pH 7.4), containing the fluorescein-labelled ligand (final concentration 1 nM) and Mcl-1 protein (final concentration 5 nM) was then added.

[5] = molecular target: soluble cyno CD74 (cyno); test: SPR, Biacore 8K; IgG captured by anti-IgG Fc, soluble CD74 as analyte; 1:1 model, apparent kinetics
Chain of soluble cyno CD74 (cyno) (P04233 other isoform, or with tags, fused parts or gaps): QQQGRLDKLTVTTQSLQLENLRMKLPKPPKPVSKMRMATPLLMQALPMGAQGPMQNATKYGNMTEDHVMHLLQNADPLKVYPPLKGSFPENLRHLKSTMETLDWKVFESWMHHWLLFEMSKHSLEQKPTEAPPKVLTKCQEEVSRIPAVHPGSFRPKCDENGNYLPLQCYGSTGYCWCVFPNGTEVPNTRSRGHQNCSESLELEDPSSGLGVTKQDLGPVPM

[6] = molecular target: T1, soluble human CD74 (human, UniProt P04233-2 73-232, limits assumed); test: as above
T1 construct: CD74' flowed over as analyte; also called human CD74 protein
T1 sequence (looked up): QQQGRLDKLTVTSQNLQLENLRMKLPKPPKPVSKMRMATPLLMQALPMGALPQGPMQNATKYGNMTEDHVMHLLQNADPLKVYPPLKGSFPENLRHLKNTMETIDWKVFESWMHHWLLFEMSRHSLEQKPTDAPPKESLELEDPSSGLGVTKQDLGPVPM
Source text: Double reference subtraction was completed to generate the final data.

[7] = CD74 ADC with the named linker-payload, 5 days
[8] = CD74 ADC with the named linker-payload, 5 days, read-out: EOL-1 IC50
[9] = CD74 ADC with the named linker-payload, 5 days, read-out: NOMO-1 IC50

IC50 [4] [nM]	Kd [5] [nM]	koff [5] [s⁻¹]	kon [5] [M⁻¹ s⁻¹]	Kd [6] [nM]	koff [6] [s⁻¹]	kon [6] [M⁻¹ s⁻¹]	Molecule	IC50 [1] [nM]	EOL-1 Amax [1, 7]	IC50 [2] [nM]	MONO-MAC-1 Amax [2]	IC50 [3] [nM]	NOMO-1 Amax [3, 7]	IC50 [1, 8] [nM]	IC50 [3, 9] [nM]
–	–	–	–	–	–	–	COCCOCCOCCOCCOCCOCCOCCOCCOCCOCCOCCOCCOCCOCCOCCOCCC(=O)N(C)Cc1cc(NC(=O)[C@H](CCCNC(N)=O)NC(=O)[C@@H](NC(=O)CCOCCN2C(=O)C=CC2=O)C(C)C)ccc1C[N+]1(C)CCN(CCOc2ccc(-c3c(-c4ccc(F)cc4)sc4ncnc(O[C@H](Cc5ccccc5OCc5ccnc(-c6ccccc6OC)n5)C(=O)O)c34)c(C)c2Cl)CC1 [L31-P1]	0.466	83.98	3.96	110.3	1.2	73.4	–	–
–	–	–	–	–	–	–	COc1ccccc1-c1nccc(COc2ccccc2C[C@@H](Oc2ncnc3sc(-c4ccc(F)cc4)c(-c4ccc(OCCN5CC[N+](C)(Cc6ccc(NC(=O)[C@H](CCCNC(N)=O)NC(=O)[C@@H](NC(=O)CCOCCN7C(=O)C=CC7=O)C(C)C)cc6COCc6cn(CCOCCOCCOCCOCCOCCOCCOCCOCCOCCOCCOCCOCCC(=O)O)nn6)CC5)c(Cl)c4C)c23)C(=O)O)n1 [L33-P1]	0.62	66.96	6.72	89.18	2.58	58.95	–	–
1.18	–	–	–	–	–	–	Cc1c(-c2c(-c3ccc(F)cc3)sc3ncnc(O[C@H](Cc4ccccc4OCc4ccnc(-c5ccccc5CO)n4)C(=O)O)c23)ccc(OCCN2CCN(C)CC2)c1Cl [C6, (2R)-2-{[(5Sa)-5-{3-chloro-2-methyl-4-[2-(4-methylpiperazin-1-yl)ethoxy]phenyl}-6-(4-fluorophenyl)thieno[2,3-d]pyrimidin-4-yl]oxy}-3-[2-({2-[2-(hydroxymethyl)phenyl]pyrimidin-4-yl}methoxy)phenyl]propanoic acid]	–	–	–	–	–	–	–	–
5.9	–	–	–	–	–	–	Cc1c(-c2c(-c3ccc(F)cc3)sc3ncnc(O[C@H](Cc4ccccc4OCc4ccnn4CC(F)(F)F)C(=O)O)c23)ccc(OCCN2CCN(C)CC2)c1Cl (atropisomer, axis not shown) [C12, (2R)-2-{[(5Sa)-5-{3-chloro-2-methyl-4-[2-(4-methylpiperazin-1-yl)ethoxy]phenyl}-6-(4-fluorophenyl)thieno[2,3-d]pyrimidin-4-yl]oxy}-3-(2-{[1-(2,2,2-trifluoroethyl)-1H-pyrazol-5-yl]methoxy}phenyl)propanoic Acid]	–	–	–	–	–	–	–	–
–	–	–	–	–	–	–	COCCOCCOCCOCCOCCOCCOCCOCCOCCOCCOCCOCCC(=O)N(C)Cc1cc(NC(=O)[C@H](CCCNC(N)=O)NC(=O)[C@@H](NC(=O)CCOCCN2C(=O)C=CC2=O)C(C)C)ccc1C[N+]1(C)CCN(CCOc2ccc(-c3c(-c4ccc(F)cc4)sc4ncnc(O[C@H](Cc5ccccc5OCc5ccnc(-c6ccccc6OC)n5)C(=O)O)c34)c(C)c2Cl)CC1 [L32-P1]	–	125	6.72	97.57	–	62.58	0.16	1.5
–	–	–	–	–	–	–	COc1ccccc1-c1nccc(COc2ccccc2C[C@@H](Oc2ncnc3sc(-c4ccc(F)cc4)c(-c4ccc(OCCN5CC[N+](C)(Cc6ccc(NC(=O)[C@H](CCCNC(N)=O)NC(=O)[C@@H](NC(=O)CCOCCN7C(=O)C=CC7=O)C(C)C)cc6CN(C)C(=O)OC[C@H](NC(=O)CS(=O)(=O)O)C(=O)O)CC5)c(Cl)c4C)c23)C(=O)O)n1 [L77-P1]	0.383	102.6	0.987	108.2	3.19	48.53	–	–
–	–	–	–	–	–	–	COCCOCCOCCOCCOCCOCCOCCOCCOCCOCCOCCOCCOCCOCCOCCOCCn1cc(COCc2cc(NC(=O)[C@H](CCCNC(N)=O)NC(=O)[C@@H](NC(=O)CCOCCN3C(=O)C=CC3=O)C(C)C)ccc2C[N+]2(C)CCN(CCOc3ccc(-c4c(-c5ccc(F)cc5)sc5ncnc(O[C@H](Cc6ccccc6OCc6ccnc(-c7ccccc7OC)n6)C(=O)O)c45)c(C)c3Cl)CC2)nn1 [L34-P1]	–	70.92	6.28	104.4	–	66.95	0.736	2.96
–	–	–	–	–	–	–	COCCOCCOCCOCCOCCOCCOCCOCCOCCOCCOCCOCCOCCOCCOCCOCCOCCOCCOCCOCCOCCOCCOCCOCCn1cc(COCc2cc(NC(=O)[C@H](CCCNC(N)=O)NC(=O)[C@@H](NC(=O)CCOCCN3C(=O)C=CC3=O)C(C)C)ccc2C[N+]2(C)CCN(CCOc3ccc(-c4c(-c5ccc(F)cc5)sc5ncnc(O[C@H](Cc6ccccc6OCc6ccnc(-c7ccccc7OC)n6)C(=O)O)c45)c(C)c3Cl)CC2)nn1 [L5-P1]	1.02	75.06	7.95	84.9	2.22	55.58	–	–
–	–	–	–	–	–	–	COCCOCCOCCOCCOCCOCCOCCOCCOCCOCCOCCOCCOCCOCCOCCOCCOCCOCCOCCOCCOCCOCCOCCOCCC(=O)N(C)Cc1cc(NC(=O)[C@H](CCCNC(N)=O)NC(=O)[C@@H](NC(=O)CCOCCN2C(=O)C=CC2=O)C(C)C)ccc1C[N+]1(C)CCN(CCOc2ccc(-c3c(-c4ccc(F)cc4)sc4ncnc(O[C@H](Cc5ccccc5OCc5ccnc(-c6ccccc6OC)n5)C(=O)O)c34)c(C)c2Cl)CC1 [L30-P1]	0.251	197.6	5.45	86.78	1.62	78.95	–	–
–	16	0.00088	56000	4.9	0.00051	100000	milatuzumab (antibody, V domains shown, also called hLL1; WT IgG) VH: QVQLQQSGSELKKPGASVKVSCKASGYTFTNYGVNWIKQAPGQGLQWMGWINPNTGEPTFDDDFKGRFAFSLDTSVSTAYLQISSLKADDTAVYFCSRSRGKNEAWFAYWGQGTLVTVSS VL: DIQLTQSPLSLPVTLGQPASISCRSSQSLVHRNGNTYLHWFQQRPGQSPRLLIYTVSNRFSGVPDRFSGSGSGTDFTLKISRVEAEDVGVYFCSQSSHVPPTFGAGTRLEIK	–	–	–	–	–	–	–	–
–	5.1	0.00058	110000	0.72	0.00017	230000	Mil_HCx hzVk1b (antibody, V domains shown, Tested as IgG; also called hLL1 heavy chain with hzLL1-Vk1b light chain) VH: QVQLQQSGSELKKPGASVKVSCKASGYTFTNYGVNWIKQAPGQGLQWMGWINPNTGEPTFDDDFKGRFAFSLDTSVSTAYLQISSLKADDTAVYFCSRSRGKNEAWFAYWGQGTLVTVSS VL: DVVMTQSPLSLPVTLGQPASISCRSSQSLVHRNGNTYLHWYQQRPGQSPRLLIYTVSNRFSGVPDRFSGSGSGTDFTLKISRVEAEDVGVYFCSQSSHVPPTFGQGTKLEIK	–	–	–	–	–	–	–	–
–	26	0.00077	30000	3.4	0.00033	96000	Hcmil x LCmil_NQ (antibody, V domains shown, Tested as IgG; also called hLL1 heavy chain with hLL1 (NQ) light chain) VH: QVQLQQSGSELKKPGASVKVSCKASGYTFTNYGVNWIKQAPGQGLQWMGWINPNTGEPTFDDDFKGRFAFSLDTSVSTAYLQISSLKADDTAVYFCSRSRGKNEAWFAYWGQGTLVTVSS VL: DIQLTQSPLSLPVTLGQPASISCRSSQSLVHRNQNTYLHWFQQRPGQSPRLLIYTVSNRFSGVPDRFSGSGSGTDFTLKISRVEAEDVGVYFCSQSSHVPPTFGAGTRLEIK	–	–	–	–	–	–	–	–
–	5.7	0.00058	100000	0.85	0.00018	210000	Mil_HCx hzVk1a (antibody, V domains shown, Tested as IgG; also called hLL1 heavy chain with hzLL1-Vk1a light chain) VH: QVQLQQSGSELKKPGASVKVSCKASGYTFTNYGVNWIKQAPGQGLQWMGWINPNTGEPTFDDDFKGRFAFSLDTSVSTAYLQISSLKADDTAVYFCSRSRGKNEAWFAYWGQGTLVTVSS VL: DIVMTQTPLSLPVTPGEPASISCRSSQSLVHRNGNTYLHWYLQKPGQSPQLLIYTVSNRFSGVPDRFSGSGSGTDFTLKISRVEAEDVGVYFCSQSSHVPPTFGQGTKLEIK	–	–	–	–	–	–	–	–
–	5.9	0.00062	100000	0.91	0.00018	200000	VHmil x VK1aNQ (antibody, V domains shown, Tested as IgG; also called VHmil × VK1aNQ; hLL1 heavy chain with hzLL1-Vk1a (NQ) light chain) VH: QVQLQQSGSELKKPGASVKVSCKASGYTFTNYGVNWIKQAPGQGLQWMGWINPNTGEPTFDDDFKGRFAFSLDTSVSTAYLQISSLKADDTAVYFCSRSRGKNEAWFAYWGQGTLVTVSS VL: DIVMTQTPLSLPVTPGEPASISCRSSQSLVHRNQNTYLHWYLQKPGQSPQLLIYTVSNRFSGVPDRFSGSGSGTDFTLKISRVEAEDVGVYFCSQSSHVPPTFGQGTKLEIK	–	–	–	–	–	–	–	–
–	5.3	0.00058	110000	0.76	0.00016	220000	VHmil x VK1bNQ (antibody, V domains shown, Tested as IgG; also called VHmil × VK1bNQ; hLL1 heavy chain with hzLL1-Vk1b (NQ) light chain) VH: QVQLQQSGSELKKPGASVKVSCKASGYTFTNYGVNWIKQAPGQGLQWMGWINPNTGEPTFDDDFKGRFAFSLDTSVSTAYLQISSLKADDTAVYFCSRSRGKNEAWFAYWGQGTLVTVSS VL: DVVMTQSPLSLPVTLGQPASISCRSSQSLVHRNQNTYLHWYQQRPGQSPRLLIYTVSNRFSGVPDRFSGSGSGTDFTLKISRVEAEDVGVYFCSQSSHVPPTFGQGTKLEIK	–	–	–	–	–	–	–	–
